This passage reports AC50 results from ChEMBL document CHEMBL5291721, “A preclinical secondary pharmacology resource illuminates target-adverse drug reaction associations of marketed drugs” (Nat Commun, 2023).

The AC50 is the concentration at which the activity in the assay is half-maximal.

A value given as a limit tells only on which side of the number the result lay.

In one experiment the target is Bile salt export pump (Homo sapiens, UniProt O95342). It is filed as functional.
In the next experiment the target is T1, Adenosine receptor A1 (Homo sapiens, UniProt P30542).
T1 sequence (P30542 whole entry): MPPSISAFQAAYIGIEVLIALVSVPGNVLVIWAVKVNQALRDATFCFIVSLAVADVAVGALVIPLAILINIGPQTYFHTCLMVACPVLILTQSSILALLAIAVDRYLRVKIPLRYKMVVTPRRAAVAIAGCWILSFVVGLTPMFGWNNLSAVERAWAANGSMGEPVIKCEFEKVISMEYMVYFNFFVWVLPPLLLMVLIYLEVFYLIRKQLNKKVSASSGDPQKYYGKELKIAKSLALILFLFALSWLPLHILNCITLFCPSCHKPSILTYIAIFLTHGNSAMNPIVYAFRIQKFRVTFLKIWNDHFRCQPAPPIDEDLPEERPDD

For experiment [1], the target named is Neuronal acetylcholine receptor subunit alpha-4 (Homo sapiens, UniProt P43681).
Neuronal acetylcholine receptor subunit alpha-4, sequence (P43681 whole entry): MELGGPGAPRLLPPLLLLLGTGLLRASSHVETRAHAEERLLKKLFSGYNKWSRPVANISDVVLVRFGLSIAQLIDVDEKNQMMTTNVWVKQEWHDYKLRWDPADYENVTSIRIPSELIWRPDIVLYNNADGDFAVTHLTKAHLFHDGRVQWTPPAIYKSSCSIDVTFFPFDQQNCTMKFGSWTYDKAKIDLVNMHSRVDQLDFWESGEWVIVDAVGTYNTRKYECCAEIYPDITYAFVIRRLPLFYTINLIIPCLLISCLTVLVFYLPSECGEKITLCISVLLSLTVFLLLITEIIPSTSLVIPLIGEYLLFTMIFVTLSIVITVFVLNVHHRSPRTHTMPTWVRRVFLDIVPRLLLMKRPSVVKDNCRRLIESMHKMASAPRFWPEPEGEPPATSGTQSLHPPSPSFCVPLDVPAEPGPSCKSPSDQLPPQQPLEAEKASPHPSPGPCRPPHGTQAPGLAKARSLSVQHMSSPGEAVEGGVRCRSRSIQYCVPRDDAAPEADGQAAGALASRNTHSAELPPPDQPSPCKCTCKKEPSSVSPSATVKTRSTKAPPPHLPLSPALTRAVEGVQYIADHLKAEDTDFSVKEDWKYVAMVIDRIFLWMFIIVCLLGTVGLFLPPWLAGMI
In experiment [2] the target is T2, 5-hydroxytryptamine receptor 1A (Homo sapiens, UniProt P08908).
T2 sequence (P08908 whole entry): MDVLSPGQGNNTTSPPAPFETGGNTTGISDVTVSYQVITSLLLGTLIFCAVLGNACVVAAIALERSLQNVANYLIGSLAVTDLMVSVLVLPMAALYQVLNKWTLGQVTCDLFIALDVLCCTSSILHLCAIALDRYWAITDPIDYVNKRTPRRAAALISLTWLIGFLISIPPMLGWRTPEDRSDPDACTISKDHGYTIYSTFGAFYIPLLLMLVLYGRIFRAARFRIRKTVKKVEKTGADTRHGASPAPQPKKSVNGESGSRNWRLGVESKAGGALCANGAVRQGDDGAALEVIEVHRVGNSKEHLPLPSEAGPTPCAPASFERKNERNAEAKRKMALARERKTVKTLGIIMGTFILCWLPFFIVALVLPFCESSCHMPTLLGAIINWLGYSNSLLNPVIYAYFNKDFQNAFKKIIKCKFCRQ
It is filed as functional, cell-based.

Experiment [3] has as its target 5-hydroxytryptamine receptor 2B (Homo sapiens, UniProt P41595). The class given is functional, cell-based.
The target in experiment [4] is T3, 5-hydroxytryptamine receptor 2C (Homo sapiens, UniProt P28335).
T3 sequence (P28335 whole entry): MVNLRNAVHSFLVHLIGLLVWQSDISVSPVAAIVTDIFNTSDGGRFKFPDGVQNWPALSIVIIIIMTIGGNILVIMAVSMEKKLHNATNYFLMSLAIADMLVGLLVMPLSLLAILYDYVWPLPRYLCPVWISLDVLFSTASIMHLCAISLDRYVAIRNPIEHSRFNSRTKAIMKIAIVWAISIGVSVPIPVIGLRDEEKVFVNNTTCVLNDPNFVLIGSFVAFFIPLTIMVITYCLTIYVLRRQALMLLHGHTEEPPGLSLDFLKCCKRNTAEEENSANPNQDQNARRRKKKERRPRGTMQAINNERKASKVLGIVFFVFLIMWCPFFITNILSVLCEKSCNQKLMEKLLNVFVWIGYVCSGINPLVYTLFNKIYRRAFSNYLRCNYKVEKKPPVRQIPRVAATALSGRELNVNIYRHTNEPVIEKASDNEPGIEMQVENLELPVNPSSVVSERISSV

The next experiment deals with Motilin receptor (Homo sapiens, UniProt O43193).
Motilin receptor, sequence (O43193 whole entry): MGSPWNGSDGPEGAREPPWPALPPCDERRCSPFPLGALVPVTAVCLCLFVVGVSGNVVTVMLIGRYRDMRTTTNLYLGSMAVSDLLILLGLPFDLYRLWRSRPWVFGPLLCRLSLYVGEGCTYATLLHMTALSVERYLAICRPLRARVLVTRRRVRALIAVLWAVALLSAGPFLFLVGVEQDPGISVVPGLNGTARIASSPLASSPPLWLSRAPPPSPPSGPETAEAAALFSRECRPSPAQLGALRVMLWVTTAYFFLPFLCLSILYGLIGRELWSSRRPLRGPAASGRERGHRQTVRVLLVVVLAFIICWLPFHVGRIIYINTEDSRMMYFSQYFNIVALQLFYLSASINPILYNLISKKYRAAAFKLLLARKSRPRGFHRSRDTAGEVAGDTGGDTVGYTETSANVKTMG
In experiment [5] the target is Delta-type opioid receptor (Homo sapiens, UniProt P41143).
Delta-type opioid receptor, sequence (P41143 whole entry): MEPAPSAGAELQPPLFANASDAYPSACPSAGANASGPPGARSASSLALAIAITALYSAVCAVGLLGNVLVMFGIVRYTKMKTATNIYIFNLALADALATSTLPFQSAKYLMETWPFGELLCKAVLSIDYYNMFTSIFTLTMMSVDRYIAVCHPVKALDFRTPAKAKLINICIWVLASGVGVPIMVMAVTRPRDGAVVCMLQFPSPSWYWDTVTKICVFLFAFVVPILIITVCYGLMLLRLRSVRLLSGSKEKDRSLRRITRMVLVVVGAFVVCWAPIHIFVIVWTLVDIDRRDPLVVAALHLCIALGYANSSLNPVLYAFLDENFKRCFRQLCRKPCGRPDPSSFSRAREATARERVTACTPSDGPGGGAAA
Experiment [6] concerns the target T4, Equilibrative nucleoside transporter 1 (Homo sapiens, UniProt Q99808).
T4 sequence (Q99808 whole entry): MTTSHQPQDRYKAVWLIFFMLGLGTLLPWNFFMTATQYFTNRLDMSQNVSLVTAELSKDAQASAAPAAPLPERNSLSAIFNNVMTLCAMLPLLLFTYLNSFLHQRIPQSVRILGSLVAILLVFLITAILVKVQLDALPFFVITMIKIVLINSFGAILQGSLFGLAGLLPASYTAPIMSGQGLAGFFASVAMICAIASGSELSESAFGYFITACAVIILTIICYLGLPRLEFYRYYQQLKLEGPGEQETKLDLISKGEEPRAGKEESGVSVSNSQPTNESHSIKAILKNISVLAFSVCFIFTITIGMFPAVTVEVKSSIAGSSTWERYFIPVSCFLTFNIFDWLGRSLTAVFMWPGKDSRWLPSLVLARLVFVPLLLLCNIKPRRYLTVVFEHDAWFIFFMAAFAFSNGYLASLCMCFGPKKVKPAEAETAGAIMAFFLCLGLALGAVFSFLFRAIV

Experiment [7] addresses T5, Amine oxidase [flavin-containing] A (Homo sapiens, UniProt P21397).
T5 sequence (P21397 whole entry): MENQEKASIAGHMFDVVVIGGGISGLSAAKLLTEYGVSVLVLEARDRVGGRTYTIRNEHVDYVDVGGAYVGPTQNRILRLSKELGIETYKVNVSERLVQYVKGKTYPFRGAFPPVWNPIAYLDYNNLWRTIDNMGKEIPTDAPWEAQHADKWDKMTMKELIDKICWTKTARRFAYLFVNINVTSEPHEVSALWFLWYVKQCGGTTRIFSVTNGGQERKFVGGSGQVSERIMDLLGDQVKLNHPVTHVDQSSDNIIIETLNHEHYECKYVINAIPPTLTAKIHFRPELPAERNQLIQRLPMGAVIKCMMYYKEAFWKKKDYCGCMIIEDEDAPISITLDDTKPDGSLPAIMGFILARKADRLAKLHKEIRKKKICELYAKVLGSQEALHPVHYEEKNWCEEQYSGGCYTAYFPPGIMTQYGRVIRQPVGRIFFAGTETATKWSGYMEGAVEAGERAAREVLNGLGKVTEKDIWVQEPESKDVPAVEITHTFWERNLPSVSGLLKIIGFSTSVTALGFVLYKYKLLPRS
It is filed as functional.

In experiment [8] the target is cGMP-inhibited 3',5'-cyclic phosphodiesterase 3A (Homo sapiens, UniProt Q14432). The class given is functional.
cGMP-inhibited 3',5'-cyclic phosphodiesterase 3A, sequence (Q14432 whole entry): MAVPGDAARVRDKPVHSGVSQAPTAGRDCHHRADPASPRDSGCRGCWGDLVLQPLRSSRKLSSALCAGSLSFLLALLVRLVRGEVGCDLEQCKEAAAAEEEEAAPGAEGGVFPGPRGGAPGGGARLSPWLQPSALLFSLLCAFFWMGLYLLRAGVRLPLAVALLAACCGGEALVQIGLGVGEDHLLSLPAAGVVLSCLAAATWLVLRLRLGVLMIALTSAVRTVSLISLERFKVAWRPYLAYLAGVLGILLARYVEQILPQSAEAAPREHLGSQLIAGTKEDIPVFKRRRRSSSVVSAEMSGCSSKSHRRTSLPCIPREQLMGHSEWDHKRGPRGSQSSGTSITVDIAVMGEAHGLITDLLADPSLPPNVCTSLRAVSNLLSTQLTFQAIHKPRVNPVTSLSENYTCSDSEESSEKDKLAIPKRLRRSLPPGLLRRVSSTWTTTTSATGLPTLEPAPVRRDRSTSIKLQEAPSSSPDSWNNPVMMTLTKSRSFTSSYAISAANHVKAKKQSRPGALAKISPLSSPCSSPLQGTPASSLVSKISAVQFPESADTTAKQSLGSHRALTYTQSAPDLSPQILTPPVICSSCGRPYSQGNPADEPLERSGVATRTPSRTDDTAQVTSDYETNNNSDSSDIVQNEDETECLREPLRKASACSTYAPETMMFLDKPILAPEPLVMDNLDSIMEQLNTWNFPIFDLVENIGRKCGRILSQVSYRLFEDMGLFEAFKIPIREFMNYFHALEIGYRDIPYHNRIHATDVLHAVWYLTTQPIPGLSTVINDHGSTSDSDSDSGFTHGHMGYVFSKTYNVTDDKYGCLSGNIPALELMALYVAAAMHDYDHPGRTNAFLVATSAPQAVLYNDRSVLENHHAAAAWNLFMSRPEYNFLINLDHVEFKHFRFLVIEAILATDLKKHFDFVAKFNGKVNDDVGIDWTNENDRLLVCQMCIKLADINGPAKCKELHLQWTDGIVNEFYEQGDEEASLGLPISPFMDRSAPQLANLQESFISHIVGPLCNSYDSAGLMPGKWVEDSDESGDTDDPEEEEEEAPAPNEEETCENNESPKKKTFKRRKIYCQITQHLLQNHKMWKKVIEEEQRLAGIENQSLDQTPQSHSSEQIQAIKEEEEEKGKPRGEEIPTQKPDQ
Also: assay procedure not described here.

Bile salt export pump, sequence (O95342 whole entry): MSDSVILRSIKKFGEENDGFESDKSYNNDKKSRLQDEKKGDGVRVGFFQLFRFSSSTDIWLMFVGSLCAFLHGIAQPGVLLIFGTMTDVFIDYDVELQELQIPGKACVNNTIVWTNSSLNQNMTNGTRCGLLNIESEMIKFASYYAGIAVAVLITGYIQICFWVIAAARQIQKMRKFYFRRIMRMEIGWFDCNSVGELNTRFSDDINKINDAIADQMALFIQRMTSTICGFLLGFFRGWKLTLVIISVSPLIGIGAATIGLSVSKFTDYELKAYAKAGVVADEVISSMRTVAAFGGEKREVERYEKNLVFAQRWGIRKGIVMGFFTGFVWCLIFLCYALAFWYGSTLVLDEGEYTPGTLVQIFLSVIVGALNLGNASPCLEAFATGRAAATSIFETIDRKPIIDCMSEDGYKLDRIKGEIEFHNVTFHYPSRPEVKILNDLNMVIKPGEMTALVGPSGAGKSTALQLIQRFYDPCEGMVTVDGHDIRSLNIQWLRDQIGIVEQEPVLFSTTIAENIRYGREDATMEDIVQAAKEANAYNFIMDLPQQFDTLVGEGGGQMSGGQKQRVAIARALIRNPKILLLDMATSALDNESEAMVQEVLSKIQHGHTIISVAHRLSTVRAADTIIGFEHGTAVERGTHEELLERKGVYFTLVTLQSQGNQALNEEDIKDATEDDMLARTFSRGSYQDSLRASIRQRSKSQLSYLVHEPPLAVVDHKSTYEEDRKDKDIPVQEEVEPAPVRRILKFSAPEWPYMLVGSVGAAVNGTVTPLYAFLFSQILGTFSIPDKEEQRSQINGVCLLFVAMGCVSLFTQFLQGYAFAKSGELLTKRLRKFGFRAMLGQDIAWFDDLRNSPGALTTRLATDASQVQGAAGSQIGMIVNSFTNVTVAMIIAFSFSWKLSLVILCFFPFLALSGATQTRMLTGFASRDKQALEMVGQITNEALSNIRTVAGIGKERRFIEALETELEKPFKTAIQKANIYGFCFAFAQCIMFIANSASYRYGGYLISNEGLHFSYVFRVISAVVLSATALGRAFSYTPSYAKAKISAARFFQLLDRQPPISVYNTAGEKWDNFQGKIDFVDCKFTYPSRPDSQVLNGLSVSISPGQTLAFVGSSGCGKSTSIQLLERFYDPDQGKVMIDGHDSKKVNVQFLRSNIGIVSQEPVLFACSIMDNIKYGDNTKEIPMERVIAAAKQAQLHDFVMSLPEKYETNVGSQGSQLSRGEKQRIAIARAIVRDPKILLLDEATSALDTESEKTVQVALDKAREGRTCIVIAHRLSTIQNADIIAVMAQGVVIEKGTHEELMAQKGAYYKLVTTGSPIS
5-hydroxytryptamine receptor 2B, sequence (P41595 whole entry): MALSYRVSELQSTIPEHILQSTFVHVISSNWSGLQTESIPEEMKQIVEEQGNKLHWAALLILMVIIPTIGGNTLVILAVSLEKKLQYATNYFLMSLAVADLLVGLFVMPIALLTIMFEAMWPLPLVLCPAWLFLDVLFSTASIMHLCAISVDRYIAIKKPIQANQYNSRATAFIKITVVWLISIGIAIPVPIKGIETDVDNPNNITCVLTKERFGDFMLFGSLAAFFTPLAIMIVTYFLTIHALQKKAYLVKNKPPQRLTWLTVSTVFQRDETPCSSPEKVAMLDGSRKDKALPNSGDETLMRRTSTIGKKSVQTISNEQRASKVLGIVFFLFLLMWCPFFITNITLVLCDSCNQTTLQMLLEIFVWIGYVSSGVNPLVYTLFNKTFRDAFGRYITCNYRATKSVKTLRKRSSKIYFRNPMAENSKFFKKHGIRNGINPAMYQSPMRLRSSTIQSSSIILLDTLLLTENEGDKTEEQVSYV

Consider `NC[C@H]1CC[C@H](C(=O)O)CC1` [TRANEXAMIC ACID], for which the AC50 at Bile salt export pump is more than 300 µM; at Adenosine receptor A1, more than 10 µM; in experiment [1], more than 10 µM; in experiment [2], more than 10 µM; in [3] it was more than 10 µM; in experiment [4], more than 30 µM. The AC50 on Motilin receptor is more than 10 µM; in experiment [5], more than 30 µM; in experiment [6], more than 10 µM; in [7], more than 10 µM; in experiment [8] it was more than 30 µM.
As for `CCc1nn(CCCN2CCN(c3cccc(Cl)c3)CC2)c(=O)n1CCOc1ccccc1` [NEFAZODONE], the AC50 at Bile salt export pump was 6 µM; at Adenosine receptor A1 it was more than 30 µM; in experiment [2], 2 µM; in experiment [3], more than 10 µM; at Motilin receptor, more than 10 µM; in experiment [5], more than 10 µM. In addition, the AC50 was 19.2 µM in [6], more than 10 µM in experiment [7] and more than 10 µM in [8].
As to `NC(N)=Nc1nc(CSCCC(N)=NS(N)(=O)=O)cs1` [FAMOTIDINE], the AC50 at Bile salt export pump is more than 300 µM; at Adenosine receptor A1, more than 30 µM; in [2], more than 10 µM; in experiment [3], more than 10 µM; in [4], more than 10 µM; on Motilin receptor it was more than 10 µM. The AC50 in [5] is more than 10 µM; in experiment [6], more than 30 µM; in [7] it was 8.1 µM; in experiment [8], more than 10 µM.
Consider `Cc1cccc(C)c1OCC(C)N` (stereo unspecified) [MEXILETINE], for which the AC50 is more than 300 µM on Bile salt export pump; more than 30 µM on Adenosine receptor A1; more than 30 µM in [1]; more than 30 µM in [2]; more than 30 µM in experiment [3]; more than 30 µM on Motilin receptor. Also, the AC50 in experiment [6] is more than 30 µM; in experiment [7], 18 µM; in [8] it was more than 30 µM.
For the compound `CNC(=O)c1cc(Oc2ccc(NC(=O)Nc3ccc(Cl)c(C(F)(F)F)c3)cc2)ccn1` [SORAFENIB], the AC50 at Bile salt export pump is 2 µM; at Adenosine receptor A1, more than 30 µM; in experiment [1], more than 30 µM; in [4], more than 30 µM; on Motilin receptor, 2.8 µM; in experiment [5] it was more than 30 µM. The AC50 in experiment [6] is more than 30 µM; in experiment [7] it was 8.26 µM; in [8], more than 30 µM.
With `NC[C@H]1O[C@H](O[C@H]2[C@H](O)[C@@H](O[C@H]3O[C@H](CO)[C@@H](O)[C@H](N)[C@H]3O)[C@H](N)C[C@@H]2N)[C@H](O)[C@@H](O)[C@@H]1O` [KANAMYCIN], the AC50 is more than 300 µM at Bile salt export pump; more than 10 µM on Adenosine receptor A1; more than 10 µM in experiment [1]; more than 10 µM in experiment [2]; more than 10 µM in [3]; more than 30 µM in [4]. For the same compound, the concentration at half-maximal activity (AC50) at Motilin receptor is more than 10 µM; in experiment [5], more than 30 µM; in experiment [6] it was more than 10 µM; in experiment [7] it was more than 30 µM; in experiment [8], more than 30 µM.
As to `CC(=O)OCC(=O)[C@@]1(O)CC[C@H]2[C@@H]3CCC4=CC(=O)CC[C@]4(C)[C@H]3C(=O)C[C@@]21C` [CORTISONE ACETATE], the AC50 was more than 300 µM at Bile salt export pump; more than 30 µM in experiment [2]; more than 30 µM in experiment [3]; more than 30 µM in experiment [4]; more than 30 µM in experiment [5]; more than 30 µM in experiment [7].
On to `CCc1ccc(CCOc2ccc(CC3SC(=O)NC3=O)cc2)nc1` (stereo unspecified) [PIOGLITAZONE], for which the AC50 at Bile salt export pump is 0.1 µM; on Adenosine receptor A1, more than 30 µM; in experiment [2], more than 10 µM; in experiment [3] it was more than 10 µM; in [4], more than 10 µM; on Motilin receptor it was more than 10 µM. Also, the AC50 was more than 10 µM in [5], more than 30 µM in experiment [6], more than 10 µM in experiment [7] and more than 30 µM in experiment [8].
As for `CN1CCCC(n2nc(Cc3ccc(Cl)cc3)c3ccccc3c2=O)CC1` (stereo unspecified) [AZELASTINE], the AC50 is more than 100 µM at Bile salt export pump; more than 30 µM at Adenosine receptor A1; 17 µM in [1]; more than 30 µM in experiment [2]; more than 30 µM at Motilin receptor; more than 30 µM in experiment [5]. Further, the AC50 in experiment [6], in experiment [7] and in experiment [8] was more than 30 µM throughout.
Regarding `COc1cc2c(cc1OC)C(=O)C(CC1CCN(Cc3ccccc3)CC1)C2` (stereo unspecified) [DONEPEZIL], the AC50 was more than 300 µM at Bile salt export pump; more than 30 µM at Adenosine receptor A1; more than 10 µM in experiment [1]; more than 30 µM in experiment [4]; more than 10 µM on Motilin receptor; more than 30 µM in [5]. Also, the AC50 in experiment [6] and in experiment [8] was more than 30 µM throughout.
As for `C#C[C@]1(O)CC[C@H]2[C@@H]3CCc4cc(O)ccc4[C@H]3CC[C@@]21C` [ETHINYL ESTRADIOL], the AC50 on Bile salt export pump was 38 µM; at Adenosine receptor A1, more than 30 µM; in experiment [2] it was 5.7 µM; in [3], more than 10 µM; in experiment [4] it was more than 30 µM; at Motilin receptor, more than 10 µM. The concentration at half-maximal activity (AC50) in experiment [5] is more than 30 µM; in experiment [6], more than 30 µM; in experiment [7], more than 10 µM; in experiment [8] it was 16 µM.
As to `CC(C)NNC(=O)c1ccncc1` [IPRONIAZID], the AC50 is more than 300 µM on Bile salt export pump; more than 30 µM on Adenosine receptor A1; more than 30 µM in experiment [1]; more than 30 µM in [2]; more than 30 µM in [3]; more than 30 µM in [4]. Further, the AC50 (at Motilin receptor; in experiment [5]; in experiment [6]; in [8]) was more than 30 µM each time.
As for `CCC(=O)O[C@H]1[C@H](O[C@@H]2[C@@H](C)[C@H](O[C@H]3C[C@@](C)(OC)[C@@H](O)[C@H](C)O3)[C@@H](C)C(=O)O[C@H](CC)[C@@](C)(O)[C@H](O)[C@@H](C)C(=O)[C@H](C)C[C@@]2(C)O)O[C@H](C)C[C@@H]1N(C)C` [ERYTHROMYCIN PROPIONATE], on Bile salt export pump, the AC50 is more than 300 µM.
The same measure, in the same setting: under `O=C(COc1ccc(Cl)cc1)N1CCN(Cc2ccc3c(c2)OCO3)CC1` [FIPEXIDE] stands 48 µM.
For `O=C(NC[C@H]1CN(c2ccc(N3CCOCC3=O)cc2)C(=O)O1)c1ccc(Cl)s1` [RIVAROXABAN], the AC50 was 100 µM on Bile salt export pump; more than 30 µM in experiment [2]; more than 30 µM in experiment [3]; more than 30 µM in experiment [4]; more than 30 µM in experiment [5]; more than 30 µM in experiment [7]. The same compound displayed a half-maximal activity concentration (AC50) in experiment [8] of more than 30 µM.
